In patent US20220017877A1, “BILIRUBIN OXIDASE ACTIVITY IMPROVING METHOD, AND BILIRUBIN OXIDASE PRODUCT” (OZEKI CORPORATION, priority 2018, published 2022):

Test: ABTS initial absorbance (A436) reduction rate (Test Example 3)
Format: physicochemical
Conditions: in one minute at 25° C.; 1 mM (single compound) or 0.011 g nitrogen element in 100 mL (composition); pH 8.5
From the text: In the present specification, the absorbance of a solution containing ABTS (ABTS solution), at a wavelength of 436 nm, is defined as an ABTS initial absorbance (A436). In the present specification, the ABTS initial absorbance (A436) reduction rate (%) of the activity improving agent is defined to be a reduction rate (%) of the absorbance of a mixed solution, which contains the above ABTS solution and the above activity improving agent, at a wavelength of 436 nm in one minute, with respect to the ABTS initial absorbance (A436) (100%). Note that the ABTS solution is a solution in which the concentration of ABTS is adjusted such that the absorbance (A436) at a wavelength of 436 nm is approximately 1.3 at an optical path length of 1.0 cm. The value “approximately 1.3” here is intended to mean a value in a range in which 1.3 is obtained by rounding the value to the first decimal place. Test Examples described later will explain specific methods for measuring the absorbance (A436) of the ABTS solution at a wavelength of 436 nm and the ABTS initial absorbance (A436) reduction rate (%) of the activity improving agent. ABTS is an abbreviation for 2,2′-azinobis(3-ethylbenzothiazoline-6-sulfonic acid).
In the present activity improving method, when the ABTS initial absorbance (A436) reduction rate (%) of the activity improving agent is measured, the concentration of the activity improving agent in the ABTS solution for measurement is set as follows: (a) the concentration is set to 1 mM, when the molecular weight of the activity improving agent is evident as in a case where the activity improving agent is made of a single compound; and (b) when the activity improving agent is a substance which is made of a composition having an inevident molecular weight, the content of nitrogen element is used as a reference and the concentration is set such that the content of nitrogen element derived from the activity improving agent is 0.011 g in 100 mL of the ABTS solution for measurement. Note that, in the above (b), the content of nitrogen element derived from the activity improving agent in the ABTS solution is a value calculated by the Kjeldahl method.
The following describes a specific evaluation method. ABTS employed was an ABTS manufactured by Roche Diagnostics K.K. Further, the ABTS was dissolved in a 50 mM glycine-KOH (pH 8.5) buffer so that the concentration of the ABTS became 2.0 mg/mL. An ABTS solution was thus prepared. The absorbance of the ABTS solution at a wavelength of 436 nm (ABTS initial absorbance (A436)) was measured at an optical path length of 1.0 cm, by using a molecular absorption spectrometer Spectra Max Plus 384 (manufactured by Molecular Devices Japan K.K.). As a result the absorbance was approximately 1.3. Next, 5 μL of an activity improving agent solution or a comparative substance solution was added to 195 μL of the ABTS solution, so that a reaction solution for evaluating ABTS (hereinafter, also referred to as “reaction solution A”) was prepared. […]

Structure (SMILES) | A436 reduction rate (%)
O=C1O[C@H]([C@@H](O)CO)C(O)=C1O [L-ascorbic acid] | 87.81
O=c1[nH]c(=O)c2[nH]c(=O)[nH]c2[nH]1 [Uric acid, uric acid] | 71.49
